In the supplement of paper PMC10307832:

What was measured:
Assay in all cases: relative viability (nuclei count vs DMSO), 5 days (fraction); higher = more cells survive
[1] = test system: HCC-366
Method in brief: (§1)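 Nuclei were stained with Hoechst during a one-step fixation (final 0.05% Triton X-100, 1% formaldehyde, 1 ug/ml Hoechst) carried out 5 days after dosing, then counted on 4× images. The cells, lung cancer lines in 1536-well plates, had been dosed by pin tool the day after seeding with one drug alone or a fixed anchor-drug dose plus five library-drug doses (not always all listed) in √10 steps. Relative viability is the nuclei count in treated wells divided by that in vehicle wells, and each value is the median of duplicate plates.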

[2] = test system: NCI-H661
Method in brief: as §1

[3] = test system: NCI-H1395
Method in brief: as §1

[4] = test system: EKVX
Method in brief: as §1

[5] = test system: NCI-H2009
Method in brief: as §1

[6] = test system: NCI-H2405
Method in brief: as §1

[7] = test system: NCI-H596
Method in brief: as §1

[8] = test system: NCI-H647
Method in brief: as §1

[9] = test system: LOU-NH91
Method in brief: as §1

[10] = test system: BEN
Method in brief: as §1

[11] = test system: LC-2-ad
Method in brief: as §1

[12] = test system: NCI-H2170
Method in brief: as §1

[13] = test system: NCI-H2342
Method in brief: as §1

[14] = test system: NCI-H1437
Method in brief: as §1

[15] = test system: SK-MES-1
Method in brief: as §1

[16] = test system: HCC-827
Method in brief: as §1

[17] = test system: NCI-H1734
Method in brief: as §1

[18] = test system: NCI-H2228
Method in brief: as §1

[19] = test system: HARA
Method in brief: as §1

[20] = test system: NCI-H2087
Method in brief: as §1

[21] = test system: SK-LU-1
Method in brief: as §1

[22] = test system: NCI-H1355
Method in brief: as §1

Structure (SMILES): Oc1nc(-c2ccc(C(F)(F)F)cc2)nc2c1CSCC2 [XAV939] + COc1cc2c(Oc3ccc(NC(=O)C4(C(=O)Nc5ccc(F)cc5)CC4)cc3F)ccnc2cc1OCCCN1CCOCC1 [Foretinib] (partner 0.25 µM)
- relative viability ([1]; first compound 0.08 µM): 0.91
- relative viability ([1]; first compound 0.253 µM): 0.877
- relative viability ([1]; first compound 0.8 µM): 0.933
- relative viability ([1]; first compound 2.53 µM): 0.941
- relative viability ([2]; first compound 0.08 µM): 1.01
- relative viability ([2]; first compound 0.253 µM): 0.991
- relative viability ([2]; first compound 0.8 µM): 0.993
- relative viability ([2]; first compound 2.53 µM): 0.929
- relative viability ([3]; first compound 0.08 µM): 1.07
- relative viability ([3]; first compound 0.253 µM): 0.783
- relative viability ([3]; first compound 0.8 µM): 1
- relative viability ([3]; first compound 2.53 µM): 0.961
- relative viability ([4]; first compound 0.08 µM): 0.876
- relative viability ([4]; first compound 0.253 µM): 0.628
- relative viability ([4]; first compound 0.8 µM): 0.675
- relative viability ([4]; first compound 2.53 µM): 0.793
- relative viability ([5]; first compound 0.08 µM): 1.32
- relative viability ([5]; first compound 0.253 µM): 1.21
- relative viability ([5]; first compound 0.8 µM): 1.18
- relative viability ([5]; first compound 2.53 µM): 1.16
- relative viability ([6]; first compound 0.08 µM): 0.99
- relative viability ([6]; first compound 0.253 µM): 1.01
- relative viability ([6]; first compound 0.8 µM): 1.03
- relative viability ([6]; first compound 2.53 µM): 1.01
- relative viability ([7]; first compound 0.08 µM): 0.814
- relative viability ([7]; first compound 0.253 µM): 0.874
- relative viability ([7]; first compound 0.8 µM): 0.84
- relative viability ([7]; first compound 2.53 µM): 0.797
- relative viability ([8]; first compound 0.08 µM): 1.21
- relative viability ([8]; first compound 0.253 µM): 0.958
- relative viability ([8]; first compound 0.8 µM): 0.991
- relative viability ([8]; first compound 2.53 µM): 0.609
- relative viability ([9]; first compound 0.08 µM): 0.932
- relative viability ([9]; first compound 0.253 µM): 0.918
- relative viability ([9]; first compound 0.8 µM): 0.903
- relative viability ([9]; first compound 2.53 µM): 0.891
- relative viability ([10]; first compound 0.08 µM): 0.71
- relative viability ([10]; first compound 0.253 µM): 0.631
- relative viability ([10]; first compound 0.8 µM): 0.577
- relative viability ([10]; first compound 2.53 µM): 0.546
- relative viability ([11]; first compound 0.08 µM): 1
- relative viability ([11]; first compound 0.253 µM): 0.854
- relative viability ([11]; first compound 0.8 µM): 0.911
- relative viability ([11]; first compound 2.53 µM): 0.843
- relative viability ([12]; first compound 0.08 µM): 1.03
- relative viability ([12]; first compound 0.253 µM): 1.01
- relative viability ([12]; first compound 0.8 µM): 0.979
- relative viability ([12]; first compound 2.53 µM): 0.864
- relative viability ([13]; first compound 0.08 µM): 1.08
- relative viability ([13]; first compound 0.253 µM): 0.936
- relative viability ([13]; first compound 0.8 µM): 0.932
- relative viability ([13]; first compound 2.53 µM): 0.529
- relative viability ([14]; first compound 0.08 µM): 1.3
- relative viability ([14]; first compound 0.253 µM): 1.18
- relative viability ([14]; first compound 0.8 µM): 1.21
- relative viability ([14]; first compound 2.53 µM): 0.989
- relative viability ([15]; first compound 0.08 µM): 1.02
- relative viability ([15]; first compound 0.253 µM): 0.841
- relative viability ([15]; first compound 0.8 µM): 0.864
- relative viability ([15]; first compound 2.53 µM): 0.82
- relative viability ([16]; first compound 0.08 µM): 1.11
- relative viability ([16]; first compound 0.253 µM): 0.996
- relative viability ([16]; first compound 0.8 µM): 1.06
- relative viability ([16]; first compound 2.53 µM): 0.989
- relative viability ([17]; first compound 0.08 µM): 0.953
- relative viability ([17]; first compound 0.253 µM): 0.784
- relative viability ([17]; first compound 0.8 µM): 0.913
- relative viability ([17]; first compound 2.53 µM): 0.829
- relative viability ([18]; first compound 0.08 µM): 0.98
- relative viability ([18]; first compound 0.253 µM): 0.874
- relative viability ([18]; first compound 0.8 µM): 0.91
- relative viability ([18]; first compound 2.53 µM): 0.847
- relative viability ([19]; first compound 0.08 µM): 1.03
- relative viability ([19]; first compound 0.253 µM): 0.79
- relative viability ([19]; first compound 0.8 µM): 0.248
- relative viability ([19]; first compound 2.53 µM): 0.678
- relative viability ([20]; first compound 0.08 µM): 1.04
- relative viability ([20]; first compound 0.253 µM): 1.03
- relative viability ([20]; first compound 0.8 µM): 1.02
- relative viability ([20]; first compound 2.53 µM): 0.677
- relative viability ([21]; first compound 0.08 µM): 0.861
- relative viability ([21]; first compound 0.253 µM): 0.756
- relative viability ([21]; first compound 0.8 µM): 0.883
- relative viability ([21]; first compound 2.53 µM): 0.78
- relative viability ([22]; first compound 0.08 µM): 0.946
- relative viability ([22]; first compound 0.253 µM): 0.839
- relative viability ([22]; first compound 0.8 µM): 0.786
- relative viability ([22]; first compound 2.53 µM): 0.619
